Laboratory results taken from patent publication US8461328B2, “Tricyclic heterocyclic compounds, compositions and methods of use thereof” (Genentech, Inc., priority 2010, dated 2013).

Assays:
Format in all cases: biochemical
[1] = target: T1, JAK1 (Homo sapiens, UniProt P23458); assay: JAK1 inhibition (Table 4); settings: read-out: JAK1 Ki
T1 construct: made in house; host or cells: SF9 insect cells (baculovirus)

[2] = target: T2, JAK2 (Homo sapiens, UniProt O60674); assay: JAK2 inhibition (Table 4); settings: read-out: JAK2 Ki
T2 construct: made in house; host or cells: SF9 insect cells (baculovirus)

[3] = target: T3, JAK3 (Homo sapiens, UniProt P52333); assay: JAK3 inhibition (Table 4); settings: read-out: JAK3 Ki
T3 construct: made in house; host or cells: SF9 insect cells (baculovirus)

[4] = target: T4, TYK2 (Homo sapiens, UniProt P29597); assay: TYK2 inhibition (Table 4)
T4 construct: made in house; host or cells: SF9 insect cells (baculovirus)
T4 sequence (P29597 873-1187): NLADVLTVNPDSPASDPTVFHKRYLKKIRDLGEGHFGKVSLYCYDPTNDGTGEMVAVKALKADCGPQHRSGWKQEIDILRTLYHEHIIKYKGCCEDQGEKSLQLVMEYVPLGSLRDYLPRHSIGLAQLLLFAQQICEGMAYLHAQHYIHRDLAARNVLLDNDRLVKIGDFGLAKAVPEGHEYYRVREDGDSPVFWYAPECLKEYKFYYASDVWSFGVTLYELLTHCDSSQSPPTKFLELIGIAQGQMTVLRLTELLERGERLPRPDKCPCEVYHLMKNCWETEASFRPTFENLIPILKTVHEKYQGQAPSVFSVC

T1 sequence (P23458 852-1154): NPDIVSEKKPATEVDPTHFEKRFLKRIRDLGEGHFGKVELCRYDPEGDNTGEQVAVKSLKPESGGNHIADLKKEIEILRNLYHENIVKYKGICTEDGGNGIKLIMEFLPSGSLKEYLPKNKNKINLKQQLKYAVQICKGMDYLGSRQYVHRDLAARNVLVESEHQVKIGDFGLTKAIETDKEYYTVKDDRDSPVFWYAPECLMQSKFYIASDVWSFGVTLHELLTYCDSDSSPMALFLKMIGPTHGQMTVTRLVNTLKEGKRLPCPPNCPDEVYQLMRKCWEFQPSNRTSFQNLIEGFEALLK
T2 sequence (O60674 812-1132): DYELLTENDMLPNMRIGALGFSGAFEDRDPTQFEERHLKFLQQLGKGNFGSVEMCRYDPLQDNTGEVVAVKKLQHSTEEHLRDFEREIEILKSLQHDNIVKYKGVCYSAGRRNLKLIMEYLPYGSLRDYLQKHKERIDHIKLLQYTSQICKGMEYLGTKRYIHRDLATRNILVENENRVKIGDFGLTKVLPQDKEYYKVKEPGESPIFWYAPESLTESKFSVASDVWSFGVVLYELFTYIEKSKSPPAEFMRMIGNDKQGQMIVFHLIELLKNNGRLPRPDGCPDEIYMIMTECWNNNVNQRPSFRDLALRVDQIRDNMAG
T3 sequence (P52333 783-1124): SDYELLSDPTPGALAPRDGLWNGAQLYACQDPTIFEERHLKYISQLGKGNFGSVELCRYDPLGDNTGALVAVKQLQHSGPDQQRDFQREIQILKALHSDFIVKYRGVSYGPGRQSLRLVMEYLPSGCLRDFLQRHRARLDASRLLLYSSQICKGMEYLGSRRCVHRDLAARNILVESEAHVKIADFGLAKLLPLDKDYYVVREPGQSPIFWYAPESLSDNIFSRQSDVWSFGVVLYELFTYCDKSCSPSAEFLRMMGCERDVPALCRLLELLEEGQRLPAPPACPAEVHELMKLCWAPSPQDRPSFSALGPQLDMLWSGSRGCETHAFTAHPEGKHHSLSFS

SMILES	Ki [1]	Ki [2]	Ki [3]	Ki [4]
N#CCCN1CCC(n2c(C3CC3(F)F)nc3cnc4[nH]ccc4c32)CC1 (racemic) [Example 404, 3-{4-[2-(2,2-Difluoro-cyclopropyl)-6H-1,3,5,6-tetraaza-as-indacen-1-yl]-piperidin-1-yl}-propionitrile]	7.27 nM	18 nM	29.3 nM	100 nM
Cc1nc2cnc3[nH]ccc3c2n1[C@H]1CC[C@H](NC(C)CC#N)CC1 (stereo partly drawn) [Example 590, Trans 3-[4-(2-methyl-6H-1,2,3,5,6-tetraaza-as-indacen-1-yl)-cyclohexylamino]-butyronitrile]	2.74 nM	13.5 nM	17.1 nM	43.1 nM
COCCNC(=O)N(C)[C@H]1CC[C@H](n2cnc3cnc4[nH]ccc4c32)CC1 [Example 592, Trans 3-(2-Methoxy-ethyl)-1-methyl-1-[4-(6H-1,2,3,5,6-tetraaza-as-indacen-1-yl)-cyclohexyl]-urea]	12 nM	15.5 nM	344 nM	215 nM
CCOC(=O)N1CC[C@H](n2c([C@@H](C)O)nc3cnc4[nH]ccc4c32)C1 [Example 931, (S)-3-[2-((R)-1-Hydroxy-ethyl)-6H-1,3,5,6-tetraaza-as-indacen-1-yl]-pyrrolidine-1-carboxylic acid ethyl ester]	65.1 nM	1860 nM	904 nM	232 nM
O=C(Cc1nc2cnc3[nH]ccc3c2n1C1CCCOC1)N1CCC(F)(F)CC1 (racemic) [Example 978, 1-(4,4-Difluoro-piperidin-1-yl)-2-[1-(tetrahydro-pyran-3-yl)-1,6-dihydro-1,3,5,6-tetraaza-as-indacen-2-yl]-ethanone]	17.4 nM	305 nM	124 nM	157 nM
N#CCCN1CCC[C@@H](n2cnc3cnc4[nH]ccc4c32)C1 [Example 10, 3-[(R)-3-(6H-1,2,3,5,6-Tetraaza-as-indacen-1-yl)-piperidin-1-yl]-propionitrile]	12.8 nM	21.7 nM	21.2 nM	88.5 nM
CC(=O)NCCc1nc2cnc3[nH]ccc3c2n1[C@H]1CCCOC1 [Example 856, (S)—N-{2-[1-(Tetrahydro-pyran-3-yl)-1,6-dihydro-1,3,5,6-tetraaza-as-indacen-2-yl]-ethyl}-acetamide]	5.96 nM	121 nM	276 nM	259 nM
CC(C)(C)OC(=O)N1CCC[C@@H]1CN[C@H]1CC[C@H](n2cnc3cnc4[nH]ccc4c32)CC1 [Example 556, trans (R)-2-{[4-(6H-1,3,5,6-Tetraaza-as-indacen-1-yl)-cyclohexylamino]-methyl}-pyrrolidine-1-carboxylic acid tert-butyl ester]	60.4 nM	190 nM	894 nM	1460 nM
Cc1nc2cnc3[nH]ccc3c2n1[C@@H]1CCC[C@@](C)(O)C1 [Example 892, (1R,3R)-1-Methyl-3-(2-methyl-6H-1,3,5,6-tetraaza-as-indacen-1-yl)-cyclohexanol]	82.1 nM	145 nM	130 nM	114 nM
CNC(=O)c1nc2cnc3[nH]ccc3c2n1C1CCN(Cc2ccccc2)CC1 [Example 159, 1-(1-Benzyl-piperidin-4-yl)-1,6-dihydro-1,2,3,5,6-tetraaza-as-indacene-2-carboxylic acid methylamide]	20.6 nM	23.8 nM	32.6 nM	2330 nM
N#C[C@H]1CC[C@H](n2c(CO)nc3cnc4[nH]ccc4c32)CC1 [Example 642, Trans 4-(2-hydroxymethyl-6H-1,2,3,5,6-tetraaza-as-indacen-1-yl)cyclohexane carbonitrile]	2.06 nM	20.9 nM	185 nM	7.22 nM
N#CCCN1CCC(n2c(CC(=O)N3CCS(=O)(=O)CC3)nc3cnc4[nH]ccc4c32)CC1 [Example 267, 3-(4-{2-[2-(1,1-Dioxo-1lambda*6*-thiomorpholin-4-yl)-2-oxo-ethyl]-6H-1,3,5,6-tetraaza-as-indacen-1-yl}-piperidin-1-yl)-propionitrile]	7.52 nM	55.6 nM	7.02 nM	63.2 nM
C[C@@H](O)c1nc2cnc3[nH]ccc3c2n1C1CCC(NCC(F)(F)F)CC1 (stereo partly drawn) [Example 1009, (R)-1-{1-[4-(2,2,2-Trifluoro-ethylamino)-cyclohexyl]-1,6-dihydro-1,3,5,6-tetraaza-as-indacen-2-yl}-ethanol]	59.5 nM	116 nM	44 nM	75.5 nM
N#CCCNC1CCC(n2cnc3cnc4[nH]ccc4c32)C1 (racemic) [Example 300, 3-[3-(6H-1,3,5,6-Tetraaza-as-indacen-1-yl)-cyclopentylamino]-propionitrile]	7.81 nM	18.3 nM	28.8 nM	65.9 nM
c1cc2c(ncc3ncn([C@H]4[C@@H]5CNC[C@@H]54)c32)[nH]1 [Example 944, (1R,5S,6S)-1-(3-Aza-bicyclo[3.1.0]hex-6-yl)-1,6-dihydro-1,3,5,6-tetraaza-as-indacene]	229 nM	886 nM	2440 nM	1810 nM
N#CCC(=O)N1CC(n2cnc3cnc4[nH]ccc4c32)C1 [Example 38, 3-Oxo-3-[3-(6H-1,3,5,6-tetraaza-as-indacen-1-yl)-azetidin-1-yl]propionitrile]	412 nM	315 nM	713 nM	1970 nM
CO[C@H]1CC[C@H](n2c(CO)nc3cnc4[nH]ccc4c32)CC1 [Example 634, Trans[1-(4-Methoxy-cyclohexyl)-1,6-dihydro-1,2,3,5,6-tetraaza-as-indacen-2-yl]-methanol]	3.8 nM	21.9 nM	165 nM	4.4 nM
COC1CNCCC1n1cnc2cnc3[nH]ccc3c21 (racemic) [Example 537, 1-(3-Methoxy-piperidin-4-yl)-1,6-dihydro-1,3,5,6-tetraaza-as-indacene]	25.2 nM	33.8 nM	322 nM	122 nM
FC(F)(F)c1nc2cnc3[nH]ccc3c2n1C1CCNCC1 [Example 254, 1-Piperidin-4-yl-2-trifluoromethyl-1,6-dihydro-1,3,5,6-tetraaza-as-indacene]	69.5 nM	568 nM	234 nM	1500 nM
CC(O)c1nc2cnc3[nH]ccc3c2n1C1CCN(C(=O)N(C)C)CC1 (racemic) [Example 528, 4-[2-(1-Hydroxy-ethyl)-6H-1,3,5,6-tetraaza-as-indacen-1-yl]-piperidine-1-carboxylic acid dimethylamide]	156 nM	396 nM	187 nM	1410 nM
c1cncc(CN2CCC[C@@H](n3cnc4cnc5[nH]ccc5c43)C2)c1 [Example 39, 1-((R)-1-Pyridin-3-ylmethyl-piperidin-3-yl)-1,6-dihydro-1,3,5,6-tetraaza-as-indacene]	35.9 nM	102 nM	182 nM	330 nM
N#Cc1cc(CN2CCC(n3cnc4cnc5[nH]ccc5c43)CC2)ccn1 [Example 313, 4-[4-(6H-1,3,5,6-Tetraaza-as-indacen-1-yl)-piperidin-1-ylmethyl]-pyridine-2-carbonitrile]	1.38 nM	3.67 nM	59.6 nM	78.6 nM
OCc1nc2cnc3[nH]ccc3c2n1C1CCN(CC(F)F)CC1 [Example 897, {1-[1-(2,2-Difluoro-ethyl)-piperidin-4-yl]-1,6-dihydro-1,3,5,6-tetraaza-as-indacen-2-yl}-methanol]	1.9 nM	9.44 nM	13.2 nM	4.42 nM
O=C(Cc1nc2cnc3[nH]ccc3c2n1C1CCCOC1)NC1CCC1 (racemic) [Example 965, N-Cyclobutyl-2-[1-(tetrahydro-pyran-3-yl)-1,6-dihydro-1,3,5,6-tetraaza-as-indacen-2-yl]-acetamide]	31.6 nM	160 nM	107 nM	306 nM
CC(C)NC(=O)Cc1nc2cnc3[nH]ccc3c2n1C1CCCOC1 (racemic) [Example 963, N-Isopropyl-2-[1-(tetrahydro-pyran-3-yl)-1,6-dihydro-1,3,5,6-tetraaza-as-indacen-2-yl]-acetamide]	43.2 nM	190 nM	119 nM	373 nM
N#Cc1cccc(CN2CC[C@@H](n3cnc4cnc5[nH]ccc5c43)C2)c1 [Example 436, 3-[(R)-3-(6H-1,3,5,6-Tetraaza-as-indacen-1-yl)-pyrrolidin-1-ylmethyl]-benzonitrile]	8.9 nM	12.5 nM	210 nM	97.7 nM
C[C@@H](O)c1nc2cnc3[nH]ccc3c2n1[C@H]1CC[C@H](N2CC[C@@H](C#N)C2)CC1 [Example 610, Trans (R)-1-{4-[2-((R)-1-hydroxy-ethyl)-6H-1,2,3,5,6-tetraaza-as-indacen-1-yl]-cyclohexyl}-pyrrolidine-3-carbonitrile]	7.25 nM	35.5 nM	139 nM	17.7 nM
CC(C)NC(=O)[C@H]1CC[C@H](n2cnc3cnc4[nH]ccc4c32)CC1 [Example 247, 4-(6H-1,3,5,6-Tetraaza-as-indacen-1-yl)-cyclohexanecarboxylic acid isopropylamide]	32.2 nM	136 nM	245 nM	358 nM
